The source of these data is ChEMBL document CHEMBL1806380, “Rigidized 1-aryl sulfonyl tryptamines: synthesis and pharmacological evaluation as 5-HT6 receptor ligands” (Bioorg Med Chem Lett, 2011).

Test [1] concerns the target 5-hydroxytryptamine receptor 6 (Homo sapiens) (UniProt P50406). The experiment in a line: Binding affinity to human recombinant 5HT6 receptor expressed in CHO cells co-expressing pCRE-Luc gene assessed as modulation of serotonin-induced intracellular cAMP level after 4 hrs by luciferase based luminescence assay. The test is classed as cell-based.
Test [2] deals with T1, Alpha-1B adrenergic receptor (Homo sapiens) (UniProt P35368).
T1 sequence (whole entry): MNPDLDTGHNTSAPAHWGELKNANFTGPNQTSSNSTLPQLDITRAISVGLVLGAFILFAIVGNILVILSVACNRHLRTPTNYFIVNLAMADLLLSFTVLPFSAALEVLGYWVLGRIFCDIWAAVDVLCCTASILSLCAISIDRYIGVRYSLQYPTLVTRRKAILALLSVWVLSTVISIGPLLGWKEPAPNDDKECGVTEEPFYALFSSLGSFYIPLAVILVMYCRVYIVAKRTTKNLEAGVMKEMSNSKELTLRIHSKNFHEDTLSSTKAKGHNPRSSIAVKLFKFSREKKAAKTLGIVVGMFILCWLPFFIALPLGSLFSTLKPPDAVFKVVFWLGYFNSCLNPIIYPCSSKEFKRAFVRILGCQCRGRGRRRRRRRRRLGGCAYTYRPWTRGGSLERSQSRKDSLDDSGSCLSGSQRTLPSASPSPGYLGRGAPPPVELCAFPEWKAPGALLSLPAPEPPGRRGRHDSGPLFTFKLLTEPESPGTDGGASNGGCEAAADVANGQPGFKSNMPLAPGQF
The experiment in a line: Inhibition of adrenergic alpha1b receptor at 0.5 uM.

Test [3] deals with Sodium-dependent dopamine transporter (Homo sapiens) (UniProt Q01959). As to the kind of experiment: Inhibition of DAT at 0.5 uM.
Test [4] has as its target T2, 5-hydroxytryptamine receptor 2C (Homo sapiens) (UniProt P28335).
T2 sequence (whole entry): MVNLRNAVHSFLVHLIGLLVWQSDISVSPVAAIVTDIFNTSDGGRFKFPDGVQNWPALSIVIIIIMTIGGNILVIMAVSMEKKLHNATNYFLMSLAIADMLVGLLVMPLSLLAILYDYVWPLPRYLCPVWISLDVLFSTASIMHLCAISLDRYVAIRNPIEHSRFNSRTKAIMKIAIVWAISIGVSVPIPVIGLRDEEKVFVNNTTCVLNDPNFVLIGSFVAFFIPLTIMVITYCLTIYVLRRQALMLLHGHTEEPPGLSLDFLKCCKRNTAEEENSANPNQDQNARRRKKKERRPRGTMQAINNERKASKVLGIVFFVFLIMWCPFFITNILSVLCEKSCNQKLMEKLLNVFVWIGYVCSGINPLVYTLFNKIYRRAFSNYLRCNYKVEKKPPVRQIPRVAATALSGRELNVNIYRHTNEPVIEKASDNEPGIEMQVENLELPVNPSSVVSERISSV
As to the kind of experiment: Inhibition of 5HT2C receptor at 0.5 uM.

The target in test [5] is 5-hydroxytryptamine receptor 4 (Homo sapiens) (UniProt Q13639). As to the kind of experiment: Binding affinity to human recombinant 5HT4 receptor expressed in CHO cells co-expressing pCRE-Luc gene assessed as modulation of serotonin-induced intracellular cAMP level at 0.5 uM after 5 hrs by luciferase based luminescence assay. The class given is cell-based.
Test [6] concerns the target Sodium-dependent serotonin transporter (Homo sapiens) (UniProt P31645). As to the kind of experiment: Inhibition of SERT at 0.5 uM.
Test [7] has as its target 5-hydroxytryptamine receptor 7 (Rattus norvegicus) (UniProt P32305). As to the kind of experiment: Binding affinity to rat 5HT7 receptor expressed in CHO cells co-expressing pCRE-Luc gene assessed as modulation of serotonin-induced intracellular cAMP level at 0.5 uM after 5 hrs by luciferase based luminescence assay. The class given is cell-based.
In test [8] the target is 5-hydroxytryptamine receptor 2A (Homo sapiens) (UniProt P28223). The experiment in a line: Inhibition of 5HT2A receptor at 0.5 uM.
For test [9], the target named is Sodium-dependent noradrenaline transporter (Homo sapiens) (UniProt P23975). As to the kind of experiment: Inhibition of NET at 0.5 uM.
For test [10], the target named is T3, Muscarinic acetylcholine receptor M1 (Homo sapiens) (UniProt P11229).
T3 sequence (whole entry): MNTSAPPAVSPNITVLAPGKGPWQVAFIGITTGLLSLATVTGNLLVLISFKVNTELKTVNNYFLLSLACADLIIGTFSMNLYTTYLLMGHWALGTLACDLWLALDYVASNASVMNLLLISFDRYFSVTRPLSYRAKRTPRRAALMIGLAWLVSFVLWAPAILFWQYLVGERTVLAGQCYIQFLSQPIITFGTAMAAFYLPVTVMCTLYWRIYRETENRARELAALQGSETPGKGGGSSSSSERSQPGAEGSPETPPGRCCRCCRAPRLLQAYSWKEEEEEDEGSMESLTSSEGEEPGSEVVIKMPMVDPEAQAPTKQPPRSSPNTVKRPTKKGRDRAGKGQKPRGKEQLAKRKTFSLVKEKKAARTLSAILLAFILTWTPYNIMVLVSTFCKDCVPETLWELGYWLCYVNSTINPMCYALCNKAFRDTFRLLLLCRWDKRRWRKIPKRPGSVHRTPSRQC
The experiment in a line: Binding affinity to human muscarinic M1 receptor expressed in CHO cells co-expressing pCRE-Luc gene assessed as modulation of acetylcholine-induced intracellular cAMP level at 0.5 uM after 5 hrs by luciferase based luminescence assay. The class given is cell-based.

Test [11] addresses Histamine H1 receptor (Homo sapiens) (UniProt P35367). As to the kind of experiment: Inhibition of histamine H1 receptor at 0.5 uM.
In test [12] the target is D(2) dopamine receptor (Homo sapiens) (UniProt P14416). The experiment in a line: Inhibition of dopamine D2 receptor at 0.5 uM.
Sequence of D(2) dopamine receptor (Homo sapiens) (P14416 whole entry): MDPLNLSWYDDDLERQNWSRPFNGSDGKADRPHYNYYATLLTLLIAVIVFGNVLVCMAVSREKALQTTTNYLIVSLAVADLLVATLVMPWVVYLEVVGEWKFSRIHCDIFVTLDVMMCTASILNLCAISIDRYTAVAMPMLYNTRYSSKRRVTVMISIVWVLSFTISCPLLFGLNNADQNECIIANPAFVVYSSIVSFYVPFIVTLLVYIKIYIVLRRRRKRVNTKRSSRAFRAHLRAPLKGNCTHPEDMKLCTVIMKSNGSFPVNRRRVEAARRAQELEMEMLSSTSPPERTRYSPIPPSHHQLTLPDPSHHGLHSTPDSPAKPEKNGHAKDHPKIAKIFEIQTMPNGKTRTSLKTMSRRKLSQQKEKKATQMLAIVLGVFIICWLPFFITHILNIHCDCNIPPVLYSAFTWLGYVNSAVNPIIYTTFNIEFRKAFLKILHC

Sequence of Sodium-dependent noradrenaline transporter (Homo sapiens) (P23975 whole entry): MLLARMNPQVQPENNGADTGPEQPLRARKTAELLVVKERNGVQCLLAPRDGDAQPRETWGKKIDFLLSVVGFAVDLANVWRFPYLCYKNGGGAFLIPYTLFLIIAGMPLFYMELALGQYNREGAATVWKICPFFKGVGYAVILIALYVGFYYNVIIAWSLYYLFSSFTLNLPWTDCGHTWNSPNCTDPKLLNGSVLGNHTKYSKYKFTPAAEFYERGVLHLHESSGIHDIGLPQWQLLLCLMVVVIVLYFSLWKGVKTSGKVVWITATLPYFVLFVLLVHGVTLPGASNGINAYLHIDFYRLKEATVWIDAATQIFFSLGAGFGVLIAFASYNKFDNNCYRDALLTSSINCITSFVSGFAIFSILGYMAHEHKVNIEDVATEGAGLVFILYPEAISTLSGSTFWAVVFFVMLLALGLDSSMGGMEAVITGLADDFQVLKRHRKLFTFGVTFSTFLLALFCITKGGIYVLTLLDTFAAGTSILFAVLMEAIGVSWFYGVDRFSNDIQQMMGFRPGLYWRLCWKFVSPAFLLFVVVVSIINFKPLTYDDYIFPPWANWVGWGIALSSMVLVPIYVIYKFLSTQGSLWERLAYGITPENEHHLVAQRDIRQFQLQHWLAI
Sequence of 5-hydroxytryptamine receptor 6 (Homo sapiens) (P50406 whole entry): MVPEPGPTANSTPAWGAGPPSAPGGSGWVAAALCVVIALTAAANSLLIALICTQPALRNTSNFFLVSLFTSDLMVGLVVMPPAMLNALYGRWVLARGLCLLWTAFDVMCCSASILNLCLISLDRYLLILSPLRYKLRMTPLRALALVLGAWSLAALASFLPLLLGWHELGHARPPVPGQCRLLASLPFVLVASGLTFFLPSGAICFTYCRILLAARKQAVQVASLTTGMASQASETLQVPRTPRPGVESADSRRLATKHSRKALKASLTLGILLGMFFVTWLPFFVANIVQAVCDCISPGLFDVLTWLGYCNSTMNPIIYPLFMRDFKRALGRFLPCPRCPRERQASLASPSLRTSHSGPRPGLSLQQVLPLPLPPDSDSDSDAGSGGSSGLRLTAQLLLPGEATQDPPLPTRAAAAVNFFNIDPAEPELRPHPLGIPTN
Sequence of 5-hydroxytryptamine receptor 4 (Homo sapiens) (Q13639 whole entry): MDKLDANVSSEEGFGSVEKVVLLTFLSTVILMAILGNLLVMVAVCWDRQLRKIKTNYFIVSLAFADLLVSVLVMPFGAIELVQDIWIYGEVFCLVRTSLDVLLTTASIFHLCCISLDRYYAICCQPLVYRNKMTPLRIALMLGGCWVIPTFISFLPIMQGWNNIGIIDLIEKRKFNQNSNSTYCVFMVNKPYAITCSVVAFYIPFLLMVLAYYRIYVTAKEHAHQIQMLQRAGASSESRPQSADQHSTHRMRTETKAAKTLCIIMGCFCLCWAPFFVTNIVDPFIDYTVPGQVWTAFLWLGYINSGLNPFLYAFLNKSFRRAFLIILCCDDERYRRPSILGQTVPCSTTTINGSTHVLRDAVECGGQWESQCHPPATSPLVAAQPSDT
Sequence of 5-hydroxytryptamine receptor 2A (Homo sapiens) (P28223 whole entry): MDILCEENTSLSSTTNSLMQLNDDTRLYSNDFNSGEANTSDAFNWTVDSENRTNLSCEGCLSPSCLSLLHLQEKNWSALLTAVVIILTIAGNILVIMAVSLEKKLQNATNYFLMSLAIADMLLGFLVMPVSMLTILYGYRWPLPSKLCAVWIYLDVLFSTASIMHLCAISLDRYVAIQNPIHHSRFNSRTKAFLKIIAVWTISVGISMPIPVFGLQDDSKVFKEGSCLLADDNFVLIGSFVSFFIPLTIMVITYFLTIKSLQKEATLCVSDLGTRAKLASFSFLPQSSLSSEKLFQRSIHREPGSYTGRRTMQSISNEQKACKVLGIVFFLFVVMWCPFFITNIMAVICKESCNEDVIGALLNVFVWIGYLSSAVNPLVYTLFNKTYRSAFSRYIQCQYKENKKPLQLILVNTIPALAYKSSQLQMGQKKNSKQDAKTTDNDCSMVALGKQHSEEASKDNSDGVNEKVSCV
Sequence of Sodium-dependent serotonin transporter (Homo sapiens) (P31645 whole entry, looked up): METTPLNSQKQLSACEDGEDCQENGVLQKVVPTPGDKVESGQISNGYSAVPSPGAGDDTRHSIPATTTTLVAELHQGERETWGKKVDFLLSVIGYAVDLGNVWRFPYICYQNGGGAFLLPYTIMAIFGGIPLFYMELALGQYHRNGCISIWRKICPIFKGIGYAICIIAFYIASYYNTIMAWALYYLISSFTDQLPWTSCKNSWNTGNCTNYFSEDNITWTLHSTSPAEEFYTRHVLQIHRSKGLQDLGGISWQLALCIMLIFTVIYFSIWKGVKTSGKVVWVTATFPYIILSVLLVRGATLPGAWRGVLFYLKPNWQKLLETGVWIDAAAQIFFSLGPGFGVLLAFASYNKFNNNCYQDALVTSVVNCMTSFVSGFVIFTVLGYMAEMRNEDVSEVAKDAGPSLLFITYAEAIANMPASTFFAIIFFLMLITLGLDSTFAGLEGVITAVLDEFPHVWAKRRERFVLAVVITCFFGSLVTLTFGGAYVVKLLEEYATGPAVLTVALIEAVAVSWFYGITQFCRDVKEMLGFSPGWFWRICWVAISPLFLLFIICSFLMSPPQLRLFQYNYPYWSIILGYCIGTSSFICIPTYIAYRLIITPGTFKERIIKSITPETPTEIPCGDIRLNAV
Sequence of Histamine H1 receptor (Homo sapiens) (P35367 whole entry): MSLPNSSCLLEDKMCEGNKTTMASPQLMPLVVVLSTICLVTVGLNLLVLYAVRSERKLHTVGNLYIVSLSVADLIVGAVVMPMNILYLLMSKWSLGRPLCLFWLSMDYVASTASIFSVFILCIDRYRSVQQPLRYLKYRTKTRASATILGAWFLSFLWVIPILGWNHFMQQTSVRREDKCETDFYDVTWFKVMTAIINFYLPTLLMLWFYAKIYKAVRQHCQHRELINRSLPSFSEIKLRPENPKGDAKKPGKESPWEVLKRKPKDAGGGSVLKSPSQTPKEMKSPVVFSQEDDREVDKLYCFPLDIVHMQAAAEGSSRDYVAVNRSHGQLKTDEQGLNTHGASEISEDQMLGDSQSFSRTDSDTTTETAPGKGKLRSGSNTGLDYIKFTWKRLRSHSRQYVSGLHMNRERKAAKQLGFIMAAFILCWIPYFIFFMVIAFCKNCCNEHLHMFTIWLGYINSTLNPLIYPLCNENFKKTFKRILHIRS
Sequence of Sodium-dependent dopamine transporter (Homo sapiens) (Q01959 whole entry): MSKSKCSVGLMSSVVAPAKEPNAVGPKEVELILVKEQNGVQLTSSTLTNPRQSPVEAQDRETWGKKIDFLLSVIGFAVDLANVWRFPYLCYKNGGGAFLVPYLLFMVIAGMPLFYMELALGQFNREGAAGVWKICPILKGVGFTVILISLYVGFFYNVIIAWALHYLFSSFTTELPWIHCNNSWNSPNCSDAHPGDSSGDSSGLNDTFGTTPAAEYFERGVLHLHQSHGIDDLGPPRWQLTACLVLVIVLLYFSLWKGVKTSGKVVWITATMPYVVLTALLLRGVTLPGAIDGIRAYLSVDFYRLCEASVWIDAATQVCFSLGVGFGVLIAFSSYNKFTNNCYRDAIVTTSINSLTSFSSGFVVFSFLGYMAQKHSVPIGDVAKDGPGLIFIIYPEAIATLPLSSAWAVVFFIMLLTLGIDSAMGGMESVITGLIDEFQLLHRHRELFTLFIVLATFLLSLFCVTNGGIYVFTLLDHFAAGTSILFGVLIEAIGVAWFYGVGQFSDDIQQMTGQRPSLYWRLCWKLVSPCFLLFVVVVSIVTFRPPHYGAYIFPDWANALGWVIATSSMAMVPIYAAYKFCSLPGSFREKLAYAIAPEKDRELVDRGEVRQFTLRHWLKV
Sequence of 5-hydroxytryptamine receptor 7 (Rattus norvegicus) (P32305 whole entry): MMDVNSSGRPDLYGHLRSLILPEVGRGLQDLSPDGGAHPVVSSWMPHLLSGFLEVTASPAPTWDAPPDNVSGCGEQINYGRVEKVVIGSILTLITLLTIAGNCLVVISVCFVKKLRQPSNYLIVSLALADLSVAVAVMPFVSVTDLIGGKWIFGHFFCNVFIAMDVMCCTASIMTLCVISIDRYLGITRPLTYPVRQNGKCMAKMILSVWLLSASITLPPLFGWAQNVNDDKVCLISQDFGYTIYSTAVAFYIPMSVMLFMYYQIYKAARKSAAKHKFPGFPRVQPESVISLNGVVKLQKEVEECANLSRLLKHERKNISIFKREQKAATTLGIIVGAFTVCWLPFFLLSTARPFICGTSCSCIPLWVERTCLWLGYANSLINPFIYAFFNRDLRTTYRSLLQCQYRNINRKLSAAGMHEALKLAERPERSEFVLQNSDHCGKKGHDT

Consider `COc1ccc2c(c1)c(C1CCN(C)C1)cn2S(=O)(=O)c1ccccc1Br` (racemic), for which, in test [1], the Kb came out at 0.13 nM.
On to `CN1CCC(c2cn(S(=O)(=O)c3ccc(F)cc3)c3ccccc23)C1` (racemic), for which the Kb in test [1] was 1 nM.
Still for that read-out and setting: under `CCOc1ccc2c(c1)c(C1=C(Cl)CN(C)C1)cn2S(=O)(=O)c1ccccc1` stands 1 nM; under `CCN1CC(Cl)=C(c2cn(S(=O)(=O)c3ccc(OC)cc3)c3ccc(OC)cc23)C1`, 14.5 nM.
As to `CN1CC(Cl)=C(c2cn(S(=O)(=O)c3ccc(F)cc3)c3ccccc23)C1`, the inhibition in test [2], in [3], in [4], in test [5], in test [6] and in test [7] was under 50% each time. Besides, the inhibition in test [8], in test [9], in test [10], in test [11] and in test [12] was under 50% in each case. Also, in test [1], the Kb came out at 0.6 nM.
Consider `CC(C)Oc1ccc2c(c1)c(C1=C(Cl)CN(C)C1)cn2S(=O)(=O)c1ccc(F)cc1`, for which the Kb in [1] turned out to be 7.27 nM.
Same read-out and setting: for `COc1ccc2c(c1)c(C1=C(Cl)CN(C)C1)cn2S(=O)(=O)c1cc(Cl)c(Cl)cc1Cl` the value was 18.4 nM.
Still for that read-out and setting: under `CCN1CC(Cl)=C(c2cn(S(=O)(=O)c3ccccc3Br)c3ccccc23)C1` stands 1.1 nM.
Turning to `COc1ccc2c(c1)c(C1=C(Cl)CN(C)C1)cn2S(=O)(=O)c1ccccc1Br`, the inhibition in [2], in [3], in test [4], in test [5], in test [6] and in test [7] was under 50% each time. Moreover, the inhibition in test [8], in test [9], in [10], in test [11] and in test [12] was under 50% each time. Further, in test [1], the Kb was found to be 0.3 nM.
Consider `CCOc1ccc2c(c1)c(C1=C(Cl)CN(C)C1)cn2S(=O)(=O)c1ccc(F)cc1`, for which, in [1], the Kb amounted to 6.16 nM.
The same measure, in the same setting: for `CCN1CC(Cl)=C(c2cn(S(=O)(=O)c3cccc(Cl)c3)c3ccc(F)cc23)C1` the value was 6.15 nM; for `CN1CCC(c2cn(S(=O)(=O)c3ccccc3)c3ccccc23)C1` (racemic), 1.52 nM; for `CCN1CC(Cl)=C(c2cn(S(=O)(=O)c3ccccc3Br)c3ccc(OC)cc23)C1`, 6.15 nM.
On the same count and under the same terms, under `COc1ccc2c(c1)c(C1=C(Cl)CN(C)C1)cn2S(=O)(=O)c1cccc(Cl)c1` stands 0.84 nM; under `CCN1CC(Cl)=C(c2cn(S(=O)(=O)c3cccc(Cl)c3)c3ccccc23)C1`, 12.5 nM; under `CCOc1ccc2c(c1)c(C1=C(Cl)CN(CC)C1)cn2S(=O)(=O)c1ccccc1Br`, 0.45 nM.
Same read-out and setting: for `CN1CCC(c2cn(S(=O)(=O)c3ccccc3Br)c3ccccc23)C1` (racemic) the value was 0.13 nM; for `CCN1CC(Cl)=C(c2cn(S(=O)(=O)c3ccc(Br)cc3)c3ccccc23)C1`, 3.9 nM.
Consider `COc1ccc2c(c1)c(CCN(C)C)cn2S(=O)(=O)c1ccccc1`, for which the Kb in [1] is 5.8 nM.
The same measure, in the same setting: under `CC(C)Oc1ccc2c(c1)c(C1CCN(C)C1)cn2S(=O)(=O)c1ccccc1Br` (racemic) stands 4.15 nM; under `CCN1CC(Cl)=C(c2cn(S(=O)(=O)c3ccc(F)cc3)c3ccccc23)C1`, 5.8 nM.
Still for that read-out and setting: for `COc1ccc2c(c1)c(C1CCN(C)C1)cn2S(=O)(=O)c1ccc(C(C)C)cc1` (racemic) the value was 0.1 nM; for `CC(C)Oc1ccc2c(c1)c(C1=C(Cl)CN(C)C1)cn2S(=O)(=O)c1ccccc1`, 0.7 nM.
Still for that read-out and setting: under `CCN1CC(Cl)=C(c2cn(S(=O)(=O)c3ccccc3)c3ccc(OC)cc23)C1` stands 0.7 nM; under `CCN1CCC(c2cn(S(=O)(=O)c3ccccc3Br)c3ccc(OC)cc23)C1` (racemic), 1.3 nM.
With `COc1ccc2c(c1)c(C1=C(Cl)CN(C)C1)cn2S(=O)(=O)c1ccc(F)cc1`, the Kb in [1] came to 0.63 nM.
On the same count and under the same terms, under `CCN1CC(Cl)=C(c2cn(S(=O)(=O)c3cccc(Cl)c3)c3ccc(OC)cc23)C1` stands 2.4 nM; under `CCOc1ccc2c(c1)c(C1CCN(C)C1)cn2S(=O)(=O)c1ccccc1Br` (racemic), 0.1 nM; under `COc1ccc2c(c1)c(C1=C(Cl)CN(C)C1)cn2S(=O)(=O)c1ccc(Br)cc1`, 1.78 nM.
Still for that read-out and setting: for `CCOc1ccc2c(c1)c(C1=C(Cl)CN(C)C1)cn2S(=O)(=O)c1ccccc1Br` the value was 0.4 nM; for `COc1ccc(S(=O)(=O)n2cc(C3=C(Cl)CN(C)C3)c3ccccc32)cc1`, 10 nM; for `CCOc1ccc2c(c1)c(C1=C(Cl)CN(C)C1)cn2S(=O)(=O)c1ccc(Br)cc1`, 4.45 nM.
The same measure, in the same setting: under `CCN1CC(Cl)=C(c2cn(S(=O)(=O)c3ccc(F)cc3)c3ccc(OC)cc23)C1` stands 8.7 nM.
Take `CCN1CC(Cl)=C(c2cn(S(=O)(=O)c3ccc(Br)cc3)c3ccc(OC)cc23)C1`: in test [1], the Kb was determined as 4.75 nM.
On the same count and under the same terms, for `CCN1CCC(c2cn(S(=O)(=O)c3ccccc3Br)c3ccccc23)C1` (racemic) the value was 0.1 nM; for `COc1ccc2c(c1)c(C1=C(Cl)CN(C)C1)cn2S(=O)(=O)c1ccc(C(C)C)cc1`, 0.25 nM.
Take `CN1CC(Cl)=C(c2cn(S(=O)(=O)c3ccccc3)c3ccc(F)cc23)C1`: in test [1], the Kb was 0.1 nM.
As for `COc1ccc2c(c1)c(C1CCN(C)C1)cn2S(=O)(=O)c1ccccc1` (racemic), the Kb in test [1] was determined as 0.89 nM.
For `COc1ccc(S(=O)(=O)n2cc(C3=C(Cl)CN(C)C3)c3cc(OC)ccc32)cc1`, the inhibition in test [2], in test [3], in test [4], in test [5], in [6] and in test [7] was under 50% in each case. The inhibition in [8], in test [9], in [10], in test [11] and in test [12] was under 50% each time. Besides, in [1], the Kb was 1.65 nM.
`CN1CC(Cl)=C(c2cn(S(=O)(=O)c3ccccc3Br)c3ccc(F)cc23)C1`: the Kb in test [1] was found to be 0.25 nM.
As to `CN1CC(Cl)=C(c2cn(S(=O)(=O)c3ccc(Br)cc3)c3ccccc23)C1`, the inhibition in [2], in test [3], in [4], in test [5], in test [6] and in test [7] was under 50% each time. Moreover, the inhibition in test [8], in test [9], in test [10], in [11] and in test [12] was under 50% each time. For the same compound, the Kb in [1] stood at 0.35 nM.
